The format of data set [1] is in vitro ADME, human. The method, then: The ratio of intensity of each pick is represented, relative to its own control. The R residue was mutated to K (Mut1-DPT-C9h), N (Mut2-DPT-C9h) or A (Mut3-DPT-C9h). Round: control DPT-C9h peptide (SEQ ID NO:6), Square: Mut1-DPT-C9h, Triangle: Mut2-DPT-C9h, Diamond: Mut3-DPT-C9h.
Analysis Peptide Stability in Human Serum
Analysis of peptides degradation was done by Proteominer and Maldi-Tof as previously described.

The subject of a further data set is human cell lines. The settings on record: cited from earlier work.
Data set [2] concerns human breast cancer xenograft. The settings on record: injected in mice bearing human breast cancer xenograft; cited from earlier work.
The test system of data set [3] is tumoral B cells isolated from chronic lymphocyte leukemia patients. To be noted: cited from earlier work.

Results on 2 substances are retold here after patent US9353155B2, “Cell-penetrating peptides” (Universite Pierre et Marie Curie (Paris 6), priority 2011, dated 2016).

No end group written: not given here.

For “VKKKKIKAEIKIYVETLDDIFEQWAHSEDL [Mut3-DPT-C9h, VKKKKIKAEIKI-YVETLDDIFEQWAHSEDL]”, the “degradation upon contact with human serum” value in data set [1] is “not degraded”.
“VKKKKIKREIKI-YVETLDDIFEQWAHSEDL (VKKKKIKREIKIYVETLDDIFEQWAHSEDL; cell penetrating peptide) [DPT-C9h]”: the induction of apoptosis result with human cell lines was “induces apoptosis”. For the same substance, the size of tumor entry in data set [2] is “important reduction”. For the same substance, the “effect on healthy cells” value in data set [3] is “without effect”. The apoptotic effect entry in data set [3] (tumoral B cells isolated from chronic lymphocyte leukemia patients) is recorded as “specific apoptotic effect”.
